One may read the pKi as the negative decadic logarithm of the Ki, by convention in mol/L. Read a high pKi as a small Ki.

The target of assay [1] is Beta-arrestin-1 (Oryctolagus cuniculus, UniProt Q95223).
For assay [2], the target named is Platelet-activating factor receptor (Homo sapiens, UniProt P25105).

pKi: −log10 of the molar value.

Platelet-activating factor receptor, sequence (P25105 whole entry): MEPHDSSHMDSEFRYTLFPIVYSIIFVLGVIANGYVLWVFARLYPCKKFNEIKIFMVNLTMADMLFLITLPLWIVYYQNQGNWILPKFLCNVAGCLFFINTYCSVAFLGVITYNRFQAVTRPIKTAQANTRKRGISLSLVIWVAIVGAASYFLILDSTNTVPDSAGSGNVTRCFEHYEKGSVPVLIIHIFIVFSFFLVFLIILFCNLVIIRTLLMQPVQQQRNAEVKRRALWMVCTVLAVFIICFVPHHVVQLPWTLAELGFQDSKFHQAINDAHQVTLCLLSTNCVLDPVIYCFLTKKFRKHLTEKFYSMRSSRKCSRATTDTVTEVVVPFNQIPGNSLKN
Beta-arrestin-1, sequence (Q95223 whole entry): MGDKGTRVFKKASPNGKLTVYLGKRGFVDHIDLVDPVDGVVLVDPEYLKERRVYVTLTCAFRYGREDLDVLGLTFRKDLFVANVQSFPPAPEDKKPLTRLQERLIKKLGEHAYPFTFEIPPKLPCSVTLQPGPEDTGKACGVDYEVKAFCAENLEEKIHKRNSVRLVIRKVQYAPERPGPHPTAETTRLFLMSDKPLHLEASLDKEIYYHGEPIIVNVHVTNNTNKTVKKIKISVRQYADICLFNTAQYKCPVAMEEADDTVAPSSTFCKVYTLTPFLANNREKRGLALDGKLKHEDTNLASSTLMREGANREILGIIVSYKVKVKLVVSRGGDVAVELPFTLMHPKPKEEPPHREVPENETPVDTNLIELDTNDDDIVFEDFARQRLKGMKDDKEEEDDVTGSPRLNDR

On to `CCCOc1c(OC)cc([C@H]2CC[C@H](c3cc(OC)c(OC)c(OC)c3)O2)cc1S(C)(=O)=O` [L-659,989, (-)], for which the pKi was 9.29 in assay [1] and 8.26 in assay [2].

Source of the values: BindingDB's records for PubMed 2841449 (Merck Sharp & Dohme Research Laboratories, 1988).
